Where two headings read alike, the source gives them in different places. Numbered stars: 1 amine (or outer) side, 2 acyl side, 3 side chain; on linkers, the order of the positions; unused ones are H or OH. Square brackets hold non-standard residues; d marks the D form. Peptide text beside a SMILES is read from it. Hexadecanoyl(3R-amino) = CCCCCCCCCCCCC[C@H](CC(=O)[*:2])N[*:1]; X1 = CCC(C)CCCCCCCCCC[C@H](CC(=O)[*:2])N[*:1]; X3 = CC(C)CCCCCCCCCC[C@H](CC(=O)[*:2])N[*:1]

Data set [1] deals with liver cancer cell line HepG2. Put plainly: MTT cytotoxicity assay against HepG2. The procedure: (§1) Two human cancer cell lines, liver cancer cell line HepG2, and breast cancer cell line MCF7, were used in the assays.
(§2) HepG2 and MCF7 cell lines were purchased from Peking Union Medical College, Cell Bank (Beijing, China). In this study, the cells were grown in Dulbecco’s modified Eagle’s medium (Hyclone, Waltham, MA, USA), supplemented with 10% fetal bovine serum (FBS, PAN Biotech, Aidenbach, Germany), penicillin (100 U/mL), and streptomycin (100 µg/mL) in a humidified incubator containing 95% air and 5% CO2 at 37 °C. Cell viability was detected by MTT colorimetric assay. Briefly, the cells were treated with different concentrations of compounds (in DMSO stock) for 48 h, with taxol as the positive control. Then, culture supernatants were replaced with medium containing 0.5 mg/mL MTT for 4 h. The supernatant was removed and 100 μL of dimethyl sulfoxide was added. Absorbance was detected at 550 nm and cell viability was expressed as the mean percentage of the absorbance in treated vs. control cells. Different concentrations of compounds ranging from 0.1 to 40 µM were tested and each of the concentration was tested in parallel triplicate. Six concentration points in the slope region were used in the calculation of IC50 values. The IC50 values were calculated from the concentration–response curves that were generated by nonlinear regression with Graph Pad Prism 5 software (Graph Pad Software, Inc., San Diego, CA, USA).
Background: Formazan colour is commonly taken as a measure of viable cells.

In data set [2] the test system is breast cancer cell line MCF7. Nature of the data set: MTT cytotoxicity assay against MCF7. The procedure:
as §1, §2

The test system of data set [3] is human cancer cell line A498. Particulars: lipopeptide proposed as bacillomycin D only based on LC-MS analysis; result in words; cited from earlier work. How it is done:
(§3) Compounds 1–10 were tested for their antitumor activities.

The subject of data set [4] is human cancer cell line A549. Particulars: lipopeptide proposed as bacillomycin D only based on LC-MS analysis; result in words; cited from earlier work. How it is done:
as §3

For data set [5], the system named is human cancer cell line HCT-15. Particulars: lipopeptide proposed as bacillomycin D only based on LC-MS analysis; result in words; cited from earlier work. How it is done: as §3

Consider `CC(C)CCCCCCCCCC[C@@H]1CC(=O)N[C@@H](CC(N)=O)C(=O)N[C@H](Cc2ccc(O)cc2)C(=O)N[C@H](CC(N)=O)C(=O)N2CCC[C@H]2C(=O)N[C@@H](CCC(=O)O)C(=O)N[C@H](CO)C(=O)N[C@@H]([C@@H](C)O)C(=O)N1` [Compound 8, iso-C16 bacillomycin D] (cyclo(E[dS]T[X3]N[dY][dN]P)), for which the IC50 in data set [1] (human, 48 h) is 5.1 ± 0.2 µM; in data set [2] (human, 48 h) it was 2.9 ± 0.1 µM.

In the case of `CCCCCCCCCCCCC[C@@H]1CC(=O)N[C@@H](CC(N)=O)C(=O)N[C@H](Cc2ccc(O)cc2)C(=O)N[C@H](CC(N)=O)C(=O)N2CCC[C@H]2C(=O)N[C@@H](CCC(=O)O)C(=O)N[C@H](CO)C(=O)N[C@@H]([C@@H](C)O)C(=O)N1` [Compound 9, C16 bacillomycin D] (cyclo(E[dS]T[Hexadecanoyl(3R-amino)]N[dY][dN]P)), the IC50 came to 4.9 ± 0.2 µM in data set [1] (human, 48 h) and 3.3 ± 0.1 µM in data set [2] (human, 48 h).

For `CCC(C)CCCCCCCCCC[C@@H]1CC(=O)N[C@@H](CC(N)=O)C(=O)N[C@H](Cc2ccc(O)cc2)C(=O)N[C@H](CC(N)=O)C(=O)N2CCC[C@H]2C(=O)N[C@@H](CCC(=O)O)C(=O)N[C@H](CO)C(=O)N[C@@H]([C@@H](C)O)C(=O)N1` (stereo partly shown) [Compound 10, anteiso-C17 bacillomycin D] (cyclo(E[dS]T[X1]N[dY][dN]P)), the half-maximal inhibitory concentration (IC50) in data set [1] (human, 48 h) was more than 10 µM; in data set [2] (human, 48 h), 7.2 ± 0.2 µM.

With `CC(=O)O[C@H]1C(=O)[C@@]2(C)[C@H]([C@H](OC(=O)c3ccccc3)[C@]3(O)C[C@H](OC(=O)[C@H](O)[C@@H](NC(=O)c4ccccc4)c4ccccc4)C(C)=C1C3(C)C)[C@]1(OC(C)=O)CO[C@@H]1C[C@@H]2O` [Taxol, reference compound], the half-maximal inhibitory concentration (IC50) in data set [1] (Homo sapiens, HepG2, 48 h, read-out: Cytotoxicity (IC50 Values in µM), HepG2) was determined as 0.075 ± 0.004 µM; in data set [2] (Homo sapiens, MCF7, 48 h, read-out: Cytotoxicity (IC50 Values in µM), MCF7) it was 0.043 ± 0.003 µM.

With bacillomycin D [Compound 5], the “inhibition rate, HepG2” value in data set [1] (HepG2, at the concentration of 10 µM, MTT, 48 h, described as no cytotoxicities) is “below 20%”. In data set [2] (MCF7, at the concentration of 10 µM, MTT, 48 h, described as no cytotoxicities), the “inhibition rate, MCF7” value was “below 20%”. In addition, the “inhibitory activities against A498” value in data set [3] is “inhibitory activities”. Besides, the “inhibitory activities against A549” value in data set [4] was “inhibitory activities”. Moreover, in data set [5], the “inhibitory activities against HCT-15” value was “inhibitory activities”.

As usually defined, the IC50 is the midpoint of a concentration-inhibition curve.

Source of the values: publication PMC5793070, “Bacillibactin and Bacillomycin Analogues with Cytotoxicities against Human Cancer Cell Lines from Marine Bacillus sp. PKU-MA00093 and PKU-MA00092” (Marine Drugs, 2018).
